Molecules are shown by their SMILES. Some results are limits rather than exact numbers.

This is an account of results in patent publication US10548317B2, “Pesticidally active pyrazole derivatives” (SYNGENTA PARTICIPATIONS AG, priority 2015, dated 2020).

In one series the test system is Tetranychus urticae. Description: Tetranychus urticae (two-spotted spider mite) bean leaf disc test. Format: in vivo. The conditions noted are these: foliar, 192 h, application rate of 200 ppm, bean leaf discs, mixed population (mobile stages), 8 days after infestation. The protocol: Tetranychus urticae (Two-Spotted Spider Mite):
Bean leaf discs on agar in 24-well microtiter plates were sprayed with aqueous test solutions prepared from 10'000 ppm DMSO stock solutions. After drying the leaf discs were infested with a mite population of mixed ages. The samples were assessed for mortality on mixed population (mobile stages) 8 days after infestation.

Another series concerns Spodoptera littoralis. Kind of series: Spodoptera littoralis (Egyptian cotton leaf worm) leaf disc spray test. Format: in vivo. The conditions noted are these: foliar, 72 h, application rate of 200 ppm, cotton leaf discs, L1 larvae, 3 days after infestation, read-out: control (at least one of mortality, anti-feedant effect, growth inhibition). The protocol:
Spodoptera littoralis (Egyptian Cotton Leaf Worm)
Cotton leaf discs were placed on agar in 24-well microtiter plates and sprayed with aqueous test solutions prepared from 10'000 ppm DMSO stock solutions. After drying the leaf discs were infested with five L1 larvae. The samples were assessed for mortality, anti-feedant effect, and growth inhibition in comparison to untreated samples 3 days after infestation. Control of Spodoptera littoralis by a test sample is when at least one of mortality, anti-feedant effect, and growth inhibition is higher than the untreated sample.

The subject of another series is Thrips tabaci. Kind of series: Thrips tabaci (onion thrips) sunflower leaf disc test. Format: in vivo. The following applies: foliar, 144 h, application rate of 200 ppm, sunflower leaf discs, mixed ages, 6 days after infestation. The protocol:
Thrips tabaci (Onion thrips):
Sunflower leaf discs were placed on agar in 24-well microtiter plates and sprayed with aqueous test solutions prepared from 10'000 ppm DMSO stock solutions. After drying the leaf discs were infested with a thrips population of mixed ages. The samples were assessed for mortality 6 days after infestation.

Another series has as its system Plutella xylostella. Description: Plutella xylostella (diamond back moth) artificial diet test. The conditions noted are these: 120 h, application rate of 200 ppm, L2 larvae, 5 days after infestation, read-out: effect in at least one of the two categories (mortality or growth inhibition). Format: in vivo. Here is the method: Plutella xylostella (Diamond Back Moth):
24-well microtiter plates with artificial diet were treated with aqueous test solutions prepared from 10'000 ppm DMSO stock solutions by pipetting. After drying, the plates were infested with L2 larvae (10 to 15 per well). The samples were assessed for mortality and growth inhibition in comparison to untreated samples 5 days after infestation. The following compounds gave an effect of at least 80% in at least one of the two categories (mortality or growth inhibition) at an application rate of 200 ppm: 1, 2, 3, 4, 5, 6, 7, 8, 9, 10, 11, 12, 13, 14, 15, 16, 17, 18, 19, 20, 21, 22, 23, 24, 25, 26, 27, 28, 29, 30, 31, 32, 33, 35, 36, 37, 38, 39, 40, 41, 42, 43, 44, 45, 46, 47, 48, 50, 51, 52, 53, 54 and 55.

In a further series the test system is Diabrotica balteata. Kind of series: Diabrotica balteata (corn root worm) maize sprout test. Format: in vivo. The conditions noted are these: 96 h, application rate of 200 ppm, maize sprouts, L2 larvae, 4 days after infestation, read-out: effect in at least one of the two categories (mortality or growth inhibition). The protocol: Diabrotica balteata, (Corn Root Worm)
Maize sprouts, placed on an agar layer in 24-well microtiter plates were treated with aqueous test solutions prepared from 10'000 ppm DMSO stock solutions by spraying. After drying, the plates were infested with L2 larvae (6 to 10 per well). The samples were assessed for mortality and growth inhibition in comparison to untreated samples 4 days after infestation. The following compounds gave an effect of at least 80% in at least one of the two categories (mortality or growth inhibition) at an application rate of 200 ppm: 1, 3, 4, 5, 6, 7, 8, 9, 10, 11, 12, 14, 15, 16, 17, 18, 19, 20, 21, 22, 23, 24, 25, 26, 27, 28, 29, 30, 31, 32, 33, 35, 36, 37, 38, 39, 40, 41, 42, 43, 44, 45, 48, 50, 51, 52, 53, 54 and 55.

The next series deals with Euschistus heros. Description: Euschistus heros (neotropical brown stink bug) soybean leaf test. Format: in vivo. The following applies: 120 h, application rate of 200 ppm, soybean leaves, N2 nymphs, 5 days after infestation, read-out: effect in at least one of the two categories (mortality or growth inhibition). Here is the method:
Euschistus heros (Neotropical Brown Stink Bug)
Soybean leaves on agar in 24-well microtiter plates were sprayed with aqueous test solutions prepared from 10'000 ppm DMSO stock solutions. After drying the leaves were infested with N2 nymphs. The samples were assessed for mortality and growth inhibition in comparison to untreated samples 5 days after infestation. The following compounds gave an effect of at least 80% in at least one of the two categories (mortality or growth inhibition) at an application rate of 200 ppm: 3, 4, 5, 6, 9, 10, 12, 14, 15, 16, 17, 18, 20, 24, 27, 28, 29, 31, 32, 33, 36, 37, 38, 42, 43, 45, 50, 52, 53, 54 and 55.

`Cn1nc(C(F)(F)C(F)(F)F)c(C(F)(F)F)c1-n1cc(-c2cc(C(=O)NC3(C(N)=S)CC3)c(Cl)s2)cn1` [Compound 6, N-(1-carbamothioylcyclopropyl)-2-chloro-5-[1-[2-methyl-5-(1,1,2,2,2-pentafluoroethyl)-4-(trifluoromethyl)pyrazol-3-yl]pyrazol-4-yl]thiophene-3-carboxamide]: the mortality at 200 ppm in the series on Tetranychus urticae and in the series on Thrips tabaci was at least 80% in each case. The control (mortality, anti-feedant effect or growth inhibition) at 200 ppm in the series on Spodoptera littoralis is at least 80%. The percent effect (mortality or growth inhibition) at 200 ppm with Plutella xylostella, with Diabrotica balteata and in the series on Euschistus heros was at least 80% each time.
As for `CN(C(=O)c1cc(-c2cnn(-c3c(C(F)(F)F)c(C(F)(F)C(F)(F)F)nn3C)c2)sc1Cl)C1(C#N)CC1` [Compound 9], the mortality at 200 ppm with Tetranychus urticae and with Thrips tabaci was at least 80% throughout. Also, in the series with Spodoptera littoralis, the control (mortality, anti-feedant effect or growth inhibition) at 200 ppm is at least 80%. Besides, the percent effect (mortality or growth inhibition) at 200 ppm in the series on Plutella xylostella, in the series on Diabrotica balteata and in the series with Euschistus heros was at least 80% each time.
Regarding `CCN(C(=O)c1cc(-c2cnn(-c3c(C(F)(F)F)c(C(F)(F)C(F)(F)F)nn3C)c2)sc1Cl)C1(C#N)CC1` [Compound 10], the mortality at 200 ppm with Tetranychus urticae and in the series on Thrips tabaci was at least 80% in each case. The control (mortality, anti-feedant effect or growth inhibition) at 200 ppm with Spodoptera littoralis was at least 80%. The percent effect (mortality or growth inhibition) at 200 ppm in the series on Plutella xylostella, with Diabrotica balteata and with Euschistus heros was at least 80% each time.
Turning to `Cn1nc(C(F)(F)C(F)(F)F)c(C(F)(F)F)c1-n1cc(-n2cc(C(=O)NC3CC3)c(C(F)(F)F)n2)cn1` [Compound 12], the mortality at 200 ppm in the series on Tetranychus urticae and in the series with Thrips tabaci was at least 80% each time. Besides, the control (mortality, anti-feedant effect or growth inhibition) at 200 ppm with Spodoptera littoralis was at least 80%. The percent effect (mortality or growth inhibition) at 200 ppm with Plutella xylostella, in the series with Diabrotica balteata and in the series on Euschistus heros was at least 80% each time.
With `CC(C)NC(=O)c1cc(-c2cnn(-c3c(C(F)(F)F)c(C(F)(F)C(F)(F)F)nn3C)c2)sc1Cl` [Compound 17], the mortality at 200 ppm in the series with Tetranychus urticae and in the series with Thrips tabaci was at least 80% in each case. The control (mortality, anti-feedant effect or growth inhibition) at 200 ppm in the series on Spodoptera littoralis is at least 80%. Moreover, the percent effect (mortality or growth inhibition) at 200 ppm in the series with Plutella xylostella, with Diabrotica balteata and in the series on Euschistus heros was at least 80% throughout.
Take `CCNC(=O)c1cc(-c2cnn(-c3c(C(F)(F)F)c(C(F)(F)C(F)(F)F)nn3C)c2)sc1Cl` [Compound 20]: the mortality at 200 ppm in the series with Tetranychus urticae and with Thrips tabaci was at least 80% in each case. In the series on Spodoptera littoralis, the control (mortality, anti-feedant effect or growth inhibition) at 200 ppm is at least 80%. The percent effect (mortality or growth inhibition) at 200 ppm with Plutella xylostella, with Diabrotica balteata and in the series on Euschistus heros was at least 80% each time.
Consider `Cn1nc(C(F)(F)C(F)(F)F)c(C(F)(F)F)c1-n1cc(-c2cc(C(=O)NCC3CC3)c(Cl)s2)cn1` [Compound 27], for which the mortality at 200 ppm with Tetranychus urticae and with Thrips tabaci was at least 80% in each case. Also, the control (mortality, anti-feedant effect or growth inhibition) at 200 ppm in the series on Spodoptera littoralis is at least 80%. Further, the percent effect (mortality or growth inhibition) at 200 ppm with Plutella xylostella, in the series with Diabrotica balteata and in the series on Euschistus heros was at least 80% throughout.
For the compound `C=CCNC(=O)c1cc(-c2cnn(-c3c(C(F)(F)F)c(C(F)(F)C(F)(F)F)nn3C)c2)sc1Cl` [Compound 29], the mortality at 200 ppm in the series with Tetranychus urticae and in the series with Thrips tabaci was at least 80% in each case. Further, the control (mortality, anti-feedant effect or growth inhibition) at 200 ppm with Spodoptera littoralis is at least 80%. Also, the percent effect (mortality or growth inhibition) at 200 ppm with Plutella xylostella, in the series on Diabrotica balteata and in the series on Euschistus heros was at least 80% each time.
In the case of `C=C(Cl)CNC(=O)c1cc(-c2cnn(-c3c(C(F)(F)F)c(C(F)(F)C(F)(F)F)nn3C)c2)sc1Cl` [Compound 31], the mortality at 200 ppm in the series on Tetranychus urticae and with Thrips tabaci was at least 80% each time. Further, the control (mortality, anti-feedant effect or growth inhibition) at 200 ppm with Spodoptera littoralis is at least 80%. For the same compound, the percent effect (mortality or growth inhibition) at 200 ppm in the series on Plutella xylostella, with Diabrotica balteata and in the series on Euschistus heros was at least 80% each time.
As for `Cn1nc(C(F)(F)C(F)(F)F)c(C(F)(F)F)c1-n1cc(-c2cc(C(=O)N[C@H]3C[C@@H]3C(F)(F)F)c(Cl)s2)cn1` [Compound 33], the mortality at 200 ppm with Tetranychus urticae and with Thrips tabaci was at least 80% throughout. In addition, the control (mortality, anti-feedant effect or growth inhibition) at 200 ppm in the series on Spodoptera littoralis is at least 80%. The percent effect (mortality or growth inhibition) at 200 ppm with Plutella xylostella, in the series with Diabrotica balteata and in the series on Euschistus heros was at least 80% each time.
Turning to `Cn1nc(C(F)(F)C(F)(F)F)c(OC(F)F)c1-n1cc(-c2cc(C(=O)NC3CC3)c(Cl)s2)cn1` [Compound 37], the mortality at 200 ppm with Tetranychus urticae and with Thrips tabaci was at least 80% throughout. Moreover, in the series with Spodoptera littoralis, the control (mortality, anti-feedant effect or growth inhibition) at 200 ppm is at least 80%. The percent effect (mortality or growth inhibition) at 200 ppm with Plutella xylostella, in the series on Diabrotica balteata and in the series with Euschistus heros was at least 80% each time.
On to `Cn1nc(C(F)(F)C(F)(F)F)c(OC(F)F)c1-n1cc(-c2cc(C(=O)NC3(C#N)CC3)c(Cl)s2)cn1` [Compound 38], for which the mortality at 200 ppm in the series with Tetranychus urticae and with Thrips tabaci was at least 80% in each case. Also, the control (mortality, anti-feedant effect or growth inhibition) at 200 ppm with Spodoptera littoralis is at least 80%. Besides, the percent effect (mortality or growth inhibition) at 200 ppm with Plutella xylostella, in the series with Diabrotica balteata and in the series with Euschistus heros was at least 80% throughout.
`Cc1sc(-c2cnn(-c3c(C(F)(F)F)c(C(F)(F)C(F)(F)F)nn3C)c2)cc1C(=O)NC1(C#N)CC1` [Compound 42]: the mortality at 200 ppm in the series on Tetranychus urticae and in the series with Thrips tabaci was at least 80% each time. In the series on Spodoptera littoralis, the control (mortality, anti-feedant effect or growth inhibition) at 200 ppm was at least 80%. Besides, the percent effect (mortality or growth inhibition) at 200 ppm in the series with Plutella xylostella, in the series on Diabrotica balteata and in the series with Euschistus heros was at least 80% throughout.
As to `Cc1sc(-c2cnn(-c3c(C(F)(F)F)c(C(F)(F)C(F)(F)F)nn3C)c2)cc1C(=O)NC1CC1` [Compound 43], the mortality at 200 ppm in the series with Tetranychus urticae and with Thrips tabaci was at least 80% throughout. In addition, the control (mortality, anti-feedant effect or growth inhibition) at 200 ppm in the series on Spodoptera littoralis is at least 80%. Besides, the percent effect (mortality or growth inhibition) at 200 ppm in the series on Plutella xylostella, in the series with Diabrotica balteata and with Euschistus heros was at least 80% in each case.
On to `Cn1nc(C(F)(F)C(F)(F)F)c(C(F)(F)F)c1-n1cc(-n2cnc(C(=O)NC3CC3)c2)cn1` [Compound 49], for which the melting point is 190 to 191 °C.
